Data from patent US20240189235A1, “CATIONIC LIPIDS AND USES THEREOF” (MELLO BIOTECH TAIWAN CO., LTD., priority 2022, published 2024).

System: Cy5-mir302a-siRNA
Assay: Encapsulation efficiency of LNPs for small RNAs (RiboGreen fluorescence)
Format: physicochemical
Conditions: Table 1 in words
Method: To produce the present composition, the present cationic lipids (compound 6 or 22), cholesterol, DEG-PEG 2000, and distearoylphosphatidylcholine (DSPC) were fully mixed in ethanol at a molar ratio of 50:38.5:1.5:10, and the total volume was brought to 500 μL, thereby producing a liquid formulation of lipid nanoparticles (LNPs). As for control group, D-lin-MC3-DMA (MC30), an ionizable amino lipid that conventionally used in LNPs preparation, was mixed with cholesterol, DEG-PEG 2000, and DSPC at the same molar ratio as the present LNPs. […]
The encapsulation ratio of liposomes for encapsulating miRNAs or siRNAs was determined by fluorescence reader (Infinite F200 Pro) with the aid of RNA quantification kit containing a fluorescent dye (RiboGreen). […] The cationic lipid-RNA complexes (typically with a total volume of 50 μL for each sample well) were then mixed with the reagent from the RNA quantification kit in each well. […] The amount of miRNAs or siRNAs were quantified by interpolating their […] at 535 nm to that of the standard curve, and the encapsulation efficiency (EE) was calculated by the following formula: […]
where Wt is the total amount of miRNAs or siRNAs released in the LNPs lysis suspension, and Wi is the total quantity of miRNAs or siRNAs added initially during preparation. […]

Structure (SMILES)	Liposome formation and siRNA encapsulation
CCCCC/C=C\C/C=C\CCCCCCCC(=O)NCC(=O)OC(COC(=O)CN)COC(=O)CN [Compound 6, 2-(2-((9Z,12Z)-octadeca-9,12-dienamido)acetoxy)propane-1,3-diyl bis(2-aminoacetate)]	successfully formed liposomes and encapsulated siRNAs therein
CCCCCC/C=C\CCCCCCCC(=O)NCC(=O)OCC(COC(=O)CN)OC(=O)CNC(=O)CCCCCCC/C=C\CCCCCC (centres unmarked) [Compound 22, (Z)-3-(2-aminoacetoxy)propane-1,2-diyl bis(2-((Z)-hexadec-9-enamido)acetate)]	successfully formed liposomes and encapsulated siRNAs therein
